Tested on: phagocytes
Assay: Luminol-amplified chemiluminescence (CL) kinetics of zymosan-stimulated diluted whole blood
Format: cell-based, human
Description: Zymosan-A (Sigma Chemical Co.) was used as a phagocyte-stimulating agent. It was opsonized for 30 min at 37° C. in sample serum (20 mg/mL) and washed twice in 0.9% NaCl. The zymosan suspension in Krebs-Ringer phosphate medium (KRP) was prepared immediately prior to use. KRP was composed of 119 mmol/L NaCl, 4.75 mmol/L KCl, 0.420 mmol/L CaCl2, 1.19 mmol/L MgSO4.7H2O, 16.6 mmol/L sodium phosphate buffer, pH 7.4 and 5.56 mmol/L glucose (De Sole et al., 1983). Luminol (Sigma Chemical Co.) was used to amplify the chemiluminescence activity. A luminol stock solution (10 mmol/L in dimethyl sulfoxide) was stored in a dark place at room temperature and diluted 1:10 (v/v) with KRP just before use. In all experiments, the final concentration of luminol was 100 μmol/L. In some experiments formylmethionyl-leucyl-phenylalanine (fMLP—Sigma Chemical Co.) was used for priming (5 nM) of CL emitting cells. All reagents used were of analytical grade and the water was glass-distilled.
Diluted whole blood (1:100 v/v final dilution) was used to avoid artifacts due to the isolation of PMNs. Peripheral venous blood from human adults was collected in heparinized tubes (20 U/mL). Samples with a total volume of 200 μL contained diluted whole fresh blood, luminol and zymosan in KRP. […] After diluted blood was added, the sample content was mixed and CL measured. […]

Structure (SMILES)	phagocytosis-related parts of the CL response (diluted whole blood preincubated at 37° C. for 5 minutes with 1.5 mmol/liter of aspirin, FIG. 6A)	relative contribution of extracellularly and intracellularly produced ROS (derived kinetic parameters) (diluted whole blood preincubated at 37° C. for 5 minutes with 3 nmol/liter fMLP, FIG. 2)
CC(=O)Oc1ccccc1C(=O)O [aspirin]	significant decrease	
CSCC[C@H](NC=O)C(=O)N[C@@H](CC(C)C)C(=O)N[C@@H](Cc1ccccc1)C(=O)O [fMLP, N-formylmethionyl leucyl phenylalanine]		more significant for the extracellular ROS production

Reference: patent US20090053751A1, “Chemiluminescent Method and Device for Evaluating the In Vivo Functional State of Phagocytes” (priority 2005, published 2009)
